Source: patent publication US4632926A, “Quinazolinone derivatives which are active against coccidiosis” (priority 1982, dated 1986)
Entries after “also recorded” stand apart in the source; their conditions may differ.

Legend:
coccidia = conditions: cited from earlier work
Eimeria acervulina = assay: Coccidiostatic activity in vivo against Eimeria acervulina (presence of oocysts in the excrements); parameters: species or system Eimeria acervulina (in Ranger pullets); key to E. acervulina (oocysts): A: absent; M: minimal present; P: present
Procedure: (§1) Groups of 5 one-week-old Ranger pullets were infected each with a mixture of 5500 sporulated oocysts of Eimeria tenella and with 5000 sporulated oocysts of Eimeria acervulina.
(§2) The compound being tested was administered at the preselected dose in admixture with a poultry-feed (LD5) poor in vitamin K and containing no other additive.
(§3) The pullets were fed ad libitum with a fodder so prepared, beginning from 1 day prior to the infestation and going on for further 5 days.
(§4) As a check, there were used non-infested non-treated chickens and infested non-treated chickens.
(§5) The evaluation of the activity on Eimeria tenella was accomplished by ascertaining the presence of lesions, if any, 5 days after the infection, while the activity on Eimeria acervulina was evaluated by ascertaining the presence of oocysts, if if any, in the excrements 5 days after the infection.
(§6) The above compounds were tested for anticoccidial activity against E. tenella and E. acervulina according to the procedure hereabove described.
(§7) The activity against E. tenella was expressed as percent control of the infection at the considered dose, while the activity against E. acervulina was expressed on the basis of the presence, if any, of oocysts in the excrements and was rated as follows: […]

Eimeria tenella = assay: Coccidiostatic activity in vivo against Eimeria tenella (lesions, % control of the infection); parameters: species or system Eimeria tenella (in Ranger pullets)
Procedure: as §1, §2, §3, §4, §5, §6, §7

[1] = Toxicity towards poultry, LD50; conditions: chicken, in vivo
chickens [2] = assay: Toxicity phenomena in chickens fed with the compound in poultry-feed; assay type: in vivo
poultry = conditions: background; cited from earlier work
chickens [3] = conditions: poultry; cited from earlier work

SMILES | activity of trans-isomer compared with cis isomer (coccidia; trans versus cis isomer in the piperidine ring, Barringer et al. 1973) | E. acervulina (oocysts) (Eimeria acervulina; 3.125 ppm in feed) | E. acervulina (oocysts) (Eimeria acervulina; 6.25 ppm in feed) | E. acervulina (oocysts) (Eimeria acervulina; 12.5 ppm in feed) | E. acervulina (oocysts) (Eimeria acervulina; 25 ppm in feed) | E. tenella (% control) (Eimeria tenella; 3.125 ppm in feed) | E. tenella (% control) (Eimeria tenella; 6.25 ppm in feed) | E. tenella (% control) (Eimeria tenella; 12.5 ppm in feed) | E. tenella (% control) (Eimeria tenella; 25 ppm in feed) | activity against E. acervulina, result in words (Eimeria acervulina; dose of 6.25 ppm) | LD50 [1] | toxicity phenomena in chickens (chickens [2]; 100 ppm in poultry-feed along the duration of the activity test) | activity against E. tenella, result in words (Eimeria tenella; dose of 12.5 ppm) | anticoccidial activity (coccidia; background, poultry, even at very low doses (practical dose 3 ppm in feed)) | toxicity for chickens (poultry) | toxicity phenomena in chickens (chickens [2]; about 38 ppm in the poultry-feed) | LD50 (chickens [3])
O=C(C[C@H]1NCCC[C@@H]1O)Cn1cnc2cc(Br)c(Cl)cc2c1=O (relative stereo) [trans-isomer] | higher activity than the corresponding cis isomer | – | – | – | – | – | – | – | – | – | – | – | – | – | – | – | –
NN=C(CC1NCCCC1O)Cn1cnc2cc(Br)c(Cl)cc2c1=O (stereo not shown) [Compound No. 1, 6-chloro-7-bromo-3-[3-(3-hydroxy-2-piperidyl)-acetonyl]-(3H)-quinazolin-4-one hydrazone] | – | M | A | A | A | 100 % control | 100 % control | 100 % control | 100 % control | – | – | – | – | – | – | – | –
CCNN=C(CC1NCCCC1OC)Cn1cnc2cc(Br)c(Cl)cc2c1=O (stereo not shown) [Compound No. 2, 6-chloro-7-bromo-3-[3-(3-methoxy-2-piperidyl)-acetonyl]-(3H)-quinazolin-4-one ethylhydrazone] | – | – | P | A | A | – | 100 % control | 100 % control | 100 % control | complete activity | ~100 mg/kg | No toxicity phenomena | full activity | – | – | – | –
O=c1c2cc(Cl)c(Br)cc2ncn1CC(CC1NCCCC1O)=NO (stereo not shown) [Compound A, reference compound] | – | P | P | P | M | 0 % control | 0 % control | 40 % control | 100 % control | – | – | – | – | – | – | – | –
O=C(CC1NCCCC1O)Cn1cnc2cc(Br)c(Cl)cc2c1=O (stereo not shown) [Halofuginone] | – | – | – | – | – | – | – | – | – | – | – | – | – | particularly active against coccidiosis in poultry; also recorded: high anticoccidial activity even at very low doses | very toxic for chickens | show phenomena of toxicity | 17.6 mg/Kg body weight
